The values below come from publication PMC8807947 (Journal of Inflammation Research, 2022).

One may read the IC50 as the midpoint of a concentration-inhibition curve.

Series [1] deals with T1, COX-1 (Ovis aries, UniProt P05979).
T1 sequence (P05979 25-600): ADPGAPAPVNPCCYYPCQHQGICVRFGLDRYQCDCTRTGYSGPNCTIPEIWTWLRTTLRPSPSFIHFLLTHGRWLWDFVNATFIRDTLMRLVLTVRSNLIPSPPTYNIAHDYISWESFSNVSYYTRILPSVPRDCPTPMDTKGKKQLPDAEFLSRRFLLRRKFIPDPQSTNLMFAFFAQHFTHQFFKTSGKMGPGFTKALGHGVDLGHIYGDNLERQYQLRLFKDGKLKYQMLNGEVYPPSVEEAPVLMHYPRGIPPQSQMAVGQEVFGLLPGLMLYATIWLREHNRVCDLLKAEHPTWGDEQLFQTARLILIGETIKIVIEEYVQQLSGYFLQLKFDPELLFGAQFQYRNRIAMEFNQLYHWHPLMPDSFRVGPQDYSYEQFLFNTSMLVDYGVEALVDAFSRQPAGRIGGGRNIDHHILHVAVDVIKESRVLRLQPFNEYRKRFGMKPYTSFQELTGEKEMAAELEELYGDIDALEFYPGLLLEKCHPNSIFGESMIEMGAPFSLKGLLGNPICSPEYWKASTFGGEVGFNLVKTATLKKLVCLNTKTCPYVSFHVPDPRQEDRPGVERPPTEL
The experiment in a line: COX-1 inhibition, enzyme immunoassay. It is filed as biochemical, ovine.

For series [2], the system named is rats. The experiment in a line: Gastric ulcerogenic liability in rats.
Series [3] concerns carrageenan induced edema in rat paw. The experiment in a line: Carrageenan induced edema model in rat paw. The conditions noted are these: 50 mg/kg oral; for Anti-inflammatory (AI) %, range over time points: range over 1, 3 and 5 h. It is filed as in vivo. A general note: The carrageenan paw model is a standard test of acute inflammation.
Series [4] concerns the target T2, COX-2 (Ovis aries, UniProt P79208).
T2 sequence (P79208 17-603): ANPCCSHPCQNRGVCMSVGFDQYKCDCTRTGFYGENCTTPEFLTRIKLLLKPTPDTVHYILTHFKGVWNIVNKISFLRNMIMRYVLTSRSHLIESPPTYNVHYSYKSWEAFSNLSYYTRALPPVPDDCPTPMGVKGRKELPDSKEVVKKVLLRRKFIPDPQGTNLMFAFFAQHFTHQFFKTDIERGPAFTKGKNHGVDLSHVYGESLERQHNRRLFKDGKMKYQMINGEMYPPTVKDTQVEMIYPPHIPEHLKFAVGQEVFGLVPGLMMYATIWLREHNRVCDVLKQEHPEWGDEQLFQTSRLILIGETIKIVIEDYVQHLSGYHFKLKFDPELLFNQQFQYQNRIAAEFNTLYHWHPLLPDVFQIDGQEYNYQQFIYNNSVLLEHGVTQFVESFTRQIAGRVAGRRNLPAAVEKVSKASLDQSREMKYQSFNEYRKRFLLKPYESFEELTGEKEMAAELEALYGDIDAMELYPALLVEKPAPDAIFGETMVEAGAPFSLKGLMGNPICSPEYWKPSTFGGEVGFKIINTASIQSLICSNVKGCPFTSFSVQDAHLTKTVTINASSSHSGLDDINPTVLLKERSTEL
The experiment in a line: COX-2 inhibition, enzyme immunoassay. In kind it is biochemical, ovine. The conditions noted are these: for SI = IC50 (COX-1)/ IC50 (COX-2): selectivity index.

Series [5] relates to PGE2. The settings on record: read-out: PGE2 inhibition IC50; cited from earlier work.
Series [6] deals with TNF-ὰ. The settings on record: cited from earlier work.
Series [7] has as its system interleukin IL-6. The settings on record: cited from earlier work.

As for `CCOC(=O)c1ccc(/N=N/c2cc(C3c4c([nH]c(=S)[nH]c4=O)Nc4[nH]c(=S)[nH]c(=O)c43)c(OC)cc2OC)cc1` [IIIh, Ethyl (E)-4-((5-(4,6-Dioxo-2,8-Dithioxo-1,2,3,4,5,6,7,8,9,10-Decahydropyrido[2,3-D:6,5-D’]Dipyrimidin-5-Yl)-2,4-Dimethoxyphenyl)Diazenyl)Benzoate], the IC50 in series [1] is 7.84 ± 0.16 µM. Besides, in series [2], the “Relative Ulcerogenicity to Celecoxib” value was 1.75, the “Ulcer Index” value is listed as 5.25 ± 0.13 and the “Ulcer Number” value is 6.50 ± 0.11. Further, in series [3] (1 h), the “Anti-Inflammatory Activity % (AI)” value is reported as 67% and the “Paw edema (change of paw dimensions), mean ± SEM” value was 0.49 ± 0.05. Moreover, in series [3] (5 h), the “Anti-Inflammatory Activity % (AI)” value was 57%. The “Anti-inflammatory (AI) %, range over time points” value in series [3] is 57–67%. Further, in series [4], the IC50 was 2.43 ± 0.07 µM and the “SI = IC50 (COX-1)/ IC50 (COX-2)” value worked out at 3.23.
`Cc1ccc(-c2cc(C(F)(F)F)nn2-c2ccc(S(N)(=O)=O)cc2)cc1` [Celecoxib, reference compound]: in series [2], the “Relative Ulcerogenicity to Celecoxib” value came out at 1, the “Ulcer Index” value is 3.00 ± 0.09 and the “Ulcer Number” value was found to be 3.25 ± 0.17. Besides, in series [3] (1 h), the “Anti-Inflammatory Activity % (AI)” value worked out at 43% and the “Paw edema (change of paw dimensions), mean ± SEM” value is recorded as 0.83 ± 0.09. For the same compound, in series [3] (3 h), the “Anti-Inflammatory Activity % (AI)” value is 43% and the “Paw edema (change of paw dimensions), mean ± SEM” value is reported as 0.80 ± 0.11. In series [3] (5 h), the “Anti-Inflammatory Activity % (AI)” value amounted to 54% and the “Paw edema (change of paw dimensions), mean ± SEM” value turned out to be 0.65 ± 0.10. For the same compound, in series [5], the IC50 was 0.1 µM.
With `O=c1[nH]c(=S)[nH]c2c1C(c1cc(/N=N/c3ccc(-c4nc5ccccc5s4)cc3)ccc1O)c1c([nH]c(=S)[nH]c1=O)N2` [IIIi, (E)-5-(5-((4-(Benzo[D]thiazol-2-Yl)Phenyl)Diazenyl)-2-Hydroxyphenyl)-2,8-Dithioxo-2,3,5,8,9,10-Hexahydropyrido[2,3-D:6,5-D’]Dipyrimidine-4,6(1H,7H)-Dione], the figures for the IC50 in series [1] and in series [4] were 3.25 ± 0.07 µM and 0.69 ± 0.02 µM, respectively. Further, the “Anti-Inflammatory Activity % (AI)” value in series [3] (1 h) is 24%; in series [3] (3 h), 43%; in series [3] (5 h), 52%. Further, the “Paw edema (change of paw dimensions), mean ± SEM” value was 1.10 ± 0.14 in series [3] (1 h), 0.80 ± 0.15 in series [3] (3 h) and 0.68 ± 0.13 in series [3] (5 h). In addition, in series [4], the “SI = IC50 (COX-1)/ IC50 (COX-2)” value is recorded as 4.71.
`CCOC(=O)c1ccc(/N=N/c2ccc(O)c(C3c4c([nH]c(=S)[nH]c4=O)Nc4[nH]c(=S)[nH]c(=O)c43)c2)cc1` [IIIf, Ethyl (E)-4-((3-(4,6-Dioxo-2,8-Dithioxo-1,2,3,4,5,6,7,8,9,10-Decahydropyrido[2,3-D:6,5-D’]Dipyrimidin-5-Yl)-4-Hydroxyphenyl)Diazenyl)Benzoate] displayed an IC50 in series [1] of 11.2 ± 0.27 µM. In series [2], the “Relative Ulcerogenicity to Celecoxib” value came out at 1.25, the “Ulcer Index” value is 3.75 ± 0.11 and the “Ulcer Number” value is on record as 3.75 ± 0.15. The “Anti-Inflammatory Activity % (AI)” value in series [3] (1 h) amounted to 52%. Besides, in series [3] (3 h), the “Anti-Inflammatory Activity % (AI)” value is listed as 59% and the “Paw edema (change of paw dimensions), mean ± SEM” value turned out to be 0.58 ± 0.11. Also, in series [3] (5 h), the “Anti-Inflammatory Activity % (AI)” value was 66% and the “Paw edema (change of paw dimensions), mean ± SEM” value stood at 0.48 ± 0.14. Further, the “Anti-inflammatory (AI) %, range over time points” value in series [3] is reported as 52–66%. Further, in series [4], half-maximal inhibition (IC50) was put at 0.95 ± 0.01 µM and the “SI = IC50 (COX-1)/ IC50 (COX-2)” value is 11.82.
Consider `C[C@@H]1C[C@H]2[C@@H]3CCC4=CC(=O)C=C[C@]4(C)[C@@]3(F)[C@@H](O)C[C@]2(C)[C@@]1(O)C(=O)CO` [dexamethasone], for which the “inhibition of TNF-ὰ” value in series [6] is recorded as 72%. For the same compound, the “inhibition of interleukin IL-6” value in series [7] is recorded as 86%.
With `COc1ccc2c(c1)c(CC(=O)O)c(C)n2C(=O)c1ccc(Cl)cc1` [Indomethacin, reference compound], in series [2], the “Relative Ulcerogenicity to Celecoxib” value is recorded as 7.5, the “Ulcer Index” value stood at 22.5 ± 0.21 and the “Ulcer Number” value is reported as 14.25 ± 0.31.
